Experimental findings from patent publication US11629171B2, “Beta-hairpin peptidomimetics” (POLYPHOR AG, priority 2017, dated 2023) are described below.

In brackets after ≈: the same amount, converted by molar mass. Where a SMILES comes first, the peptide text is derived from it. Bridges are numbered along the chain shown (N, C = ends). Roman numbers before positions name the chains, in order. [ ]: non-standard residue; d: D form. Thr(ol) = C[C@@H](O)[C@H](N)CO; Pen = CC(C)(S)[C@H](N)C(=O)O; Tle = CC(C)(C)[C@H](N)C(=O)O; Hiv = CC(C)[C@H](O)C(=O)O; dDab = NCC[C@@H](N)C(=O)O; hSer = N[C@@H](CCO)C(=O)O; Nle = CCCC[C@H](N)C(=O)O; Orn = NCCC[C@H](N)C(=O)O; Dab = NCC[C@H](N)C(=O)O; Dap = NC[C@H](N)C(=O)O Where only a bound is given, the exact number is not on record here.

Type in all cases: cell-based
Data set [1] has as its system human red blood cells (hRBC). Description: Hemolysis. Conditions: red cells of human, 1 h, 200. The method in brief:
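Read-out is supernatant absorbance at 540 nm, normalised to full lysis by 2% Triton X-100 and zero lysis by PBS with 10% water. Peptides (200 μg/mL) were exposed to 20% v/v washed human erythrocytes at 37° C for 1 h under shaking.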

For data set [2], the system named is Pseudomonas aeruginosa ATCC 27853. The conditions noted are these: ATCC 27853. The method in brief: (§1)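 CLSI broth microdilution: inoculum ~10^6 CFU/mL in cation-adjusted Mueller-Hinton II broth, with peptide in serial two-fold dilutions plus Polysorbate 80 (0.002% final). MIC (μg/mL) is the lowest concentration without visible growth after 18-20 hours at 35° C.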

The test system of data set [3] is Klebsiella pneumoniae 968733. The conditions noted are these: 968733. The method in brief:
as §1

The subject of data set [4] is Escherichia coli ATCC 25922. The conditions noted are these: ATCC 25922. In short, it runs like this: as §1
Data set [5] deals with Escherichia coli 926415. The conditions noted are these: 926415. In short, it runs like this:
as §1

Data set [6] has as its system Acinetobacter baumannii 872842. The conditions noted are these: 872842. The method in brief: as §1
The subject of data set [7] is Enterobacter cloacae 848840. Conditions: 848840. The method in brief: as §1
Data set [8] relates to Acinetobacter baumannii DSM 30008. The conditions noted are these: DSM 30008. In short, it runs like this: as §1
Data set [9] deals with Klebsiella pneumoniae SSI #3010. Conditions: SSI #3010. The method in brief: as §1

In general, MIC refers to the smallest concentration in the dilution series that meets the test's criterion for growth inhibition. For the compound `CC(C)C[C@@H]1NC(=O)[C@@H](CC(C)C)NC(=O)[C@H](CCN)NC(=O)[C@@H](NC(=O)[C@H](CCN)NC(=O)[C@@H](NC(=O)[C@H](CCN)NC(=O)CC[C@@H]2NC(=O)[C@H](CCN)NC(=O)[C@H](Cc3ccc(O)cc3)NC(=O)[C@@H](NC(=O)[C@@H](O)C(C)C)CSSC[C@@H](C(=O)N[C@H](CO)[C@@H](C)O)NC(=O)[C@H](C(C)(C)C)NC(=O)[C@H](CCO)NC(=O)[C@H](Cc3c[nH]c4ccccc34)NC(=O)[C@H](CCO)NC(=O)[C@@H](CCN)NC2=O)[C@@H](C)O)CCNC(=O)[C@H]([C@@H](C)O)NC(=O)[C@H](CCN)NC(=O)[C@H](CCN)NC1=O` [Ex. 81] (I: H-[Hiv]CY[Dab]E[dDab][hSer]W[hSer][Tle]C[Thr(ol)] / II: [Dab]T[Dab][Dab][Dab][dL]L[Dab][Dab]T; disulfide I:2-I:11; amide I:5-II:N; lactam II:4-II:C), the “Hemolysis at 200 μg/mL” value in data set [1] is less than 1%. Also, the MIC in data set [2] was 0.125 µg/mL (≈ 0.0518 µM); in data set [3] it was 0.125 µg/mL (≈ 0.0518 µM); in data set [4] it was 0.0625 µg/mL (≈ 0.0259 µM); in [5], 0.125 µg/mL (≈ 0.0518 µM); in [6], 0.25 µg/mL (≈ 0.104 µM); in data set [7], 0.125 µg/mL (≈ 0.0518 µM). Also, the MIC in [8] was 0.125 µg/mL (≈ 0.0518 µM); in data set [9] it was 0.0625 µg/mL (≈ 0.0259 µM).

In the case of `CC(=O)N[C@@H](CCN)C(=O)N[C@@H](CC(C)C)C(=O)N[C@H](C(=O)N[C@@H](Cc1ccc(O)cc1)C(=O)N[C@H]1CSSC[C@@H](C(=O)N[C@H](C(=O)N[C@@H](C)C(=O)N[C@H](C(N)=O)C(C)C)C(C)(C)C)NC(=O)[C@H](Cc2c[nH]c3ccccc23)NC(=O)[C@H](CCN)NC(=O)[C@@H](CCN)NC(=O)[C@H](CCC(=O)N[C@@H](CCN)C(=O)N[C@H](C(=O)N[C@@H](CN)C(=O)N[C@H]2CCNC(=O)[C@H]([C@@H](C)O)NC(=O)[C@H](CCN)NC(=O)[C@H](CCN)NC(=O)[C@H](CC(C)C)NC(=O)[C@@H](CC(C)C)NC(=O)[C@H](CCN)NC2=O)[C@@H](C)O)NC1=O)[C@@H](C)O` [Ex. 239] (I: Ac-[Dab]LTYCE[dDab][Dab]WC[Tle]AV-NH2 / II: [Dab]T[Dap][Dab][Dab][dL]L[Dab][Dab]T; disulfide I:5-I:10; amide I:6-II:N; lactam II:4-II:C), in data set [1], the “Hemolysis at 200 μg/mL” value is reported as 1%. Also, the minimal inhibitory concentration (MIC) came to 0.25 µg/mL (≈ 0.0985 µM) in data set [2]; 0.25 µg/mL (≈ 0.0985 µM) in [3]; 0.125 µg/mL (≈ 0.0493 µM) in data set [4]; 0.0625 µg/mL (≈ 0.0246 µM) in data set [5]; 0.125 µg/mL (≈ 0.0493 µM) in data set [6]; 0.25 µg/mL (≈ 0.0985 µM) in data set [7]. The MIC in [8] stood at 0.0625 µg/mL (≈ 0.0246 µM); in data set [9] it was 0.125 µg/mL (≈ 0.0493 µM).

Turning to `CC(=O)N[C@H](C(=O)N[C@H](C(=O)N[C@@H](Cc1ccc(O)cc1)C(=O)N[C@H]1CSSC(C)(C)[C@@H](C(=O)N[C@H](C(=O)N[C@H](C(=O)N[C@H](C(N)=O)[C@@H](C)O)[C@@H](C)O)C(C)C)NC(=O)[C@H](Cc2c[nH]c3ccccc23)NC(=O)[C@H](CO)NC(=O)[C@@H](CCN)NC(=O)[C@H](CCC(=O)N[C@@H](CCN)C(=O)N[C@H](C(=O)N[C@@H](CN)C(=O)N[C@H]2CCNC(=O)[C@H]([C@@H](C)O)NC(=O)[C@H](CCN)NC(=O)[C@H](CCN)NC(=O)[C@H](CC(C)C)NC(=O)[C@@H](CC(C)C)NC(=O)[C@H](CCN)NC2=O)[C@@H](C)O)NC1=O)[C@@H](C)O)C(C)C` [Ex. 222] (I: Ac-VTYCE[dDab]SW[Pen]VTT-NH2 / II: [Dab]T[Dap][Dab][Dab][dL]L[Dab][Dab]T; disulfide I:4-I:9; amide I:5-II:N; lactam II:4-II:C), in data set [1], the “Hemolysis at 200 μg/mL” value was 1%. In addition, the MIC in [2] was 0.125 µg/mL (≈ 0.0509 µM); in [3], 0.25 µg/mL (≈ 0.102 µM); in data set [4], 0.03125 µg/mL (≈ 0.0127 µM); in [5], 0.25 µg/mL (≈ 0.102 µM); in data set [6] it was 0.0625 µg/mL (≈ 0.0254 µM); in data set [7] it was 0.125 µg/mL (≈ 0.0509 µM). Also, the MIC in [8] and in data set [9] was 0.0625 µg/mL (≈ 0.0254 µM) each time.

Take `CCCC[C@H](NC(C)=O)C(=O)N[C@H]1CCCNC(=O)[C@@H]([C@H](C)O)NC(=O)[C@H](C(C)(C)C)NC(=O)[C@H](CO)NC(=O)[C@H](Cc2c[nH]c3ccccc23)NC(=O)[C@H](CCO)NC(=O)[C@@H](CCN)NC(=O)[C@H](CCC(=O)N[C@@H](CCN)C(=O)N[C@H](C(=O)N[C@@H](CN)C(=O)N[C@H]2CCNC(=O)[C@H]([C@@H](C)O)NC(=O)[C@H](CCN)NC(=O)[C@H](CCN)NC(=O)[C@H](CC(C)C)NC(=O)[C@@H](CC(C)C)NC(=O)[C@H](CCN)NC2=O)[C@@H](C)O)NC(=O)[C@H](CN)NC(=O)[C@H](Cc2ccc(O)cc2)NC1=O` [Ex. 34] (I: Ac-[Nle][Orn]Y[Dap]E[dDab][hSer]WS[Tle][dT] / II: [Dab]T[Dap][Dab][Dab][dL]L[Dab][Dab]T; lactam I:2-I:C, II:4-II:C; amide I:5-II:N): the “Hemolysis at 200 μg/mL” value in [1] is less than 1%. Further, the MIC in [2] stood at 0.25 µg/mL (≈ 0.107 µM); in data set [3], 0.125 µg/mL (≈ 0.0536 µM); in data set [4], 0.0625 µg/mL (≈ 0.0268 µM); in data set [5], 0.0625 µg/mL (≈ 0.0268 µM); in data set [6], 0.0625 µg/mL (≈ 0.0268 µM); in [7] it was 0.125 µg/mL (≈ 0.0536 µM). In addition, the minimal inhibitory concentration (MIC) came out at 0.03125 µg/mL (≈ 0.0134 µM) in data set [8] and 0.125 µg/mL (≈ 0.0536 µM) in [9].

Take `CC(=O)N[C@@H](CO)C(=O)N[C@H]1CSSC[C@@H](C(=O)N[C@H](C(N)=O)C(C)C)NC(=O)[C@H](C(C)C)NC(=O)[C@H](CO)NC(=O)[C@H](Cc2c[nH]c3ccccc23)NC(=O)[C@H](CCO)NC(=O)[C@@H](CCN)NC(=O)[C@H](CCC(=O)N[C@@H](CCN)C(=O)N[C@H](C(=O)N[C@@H](CCN)C(=O)N[C@H]2CCNC(=O)[C@H]([C@@H](C)O)NC(=O)[C@H](CCN)NC(=O)[C@H](CCN)NC(=O)[C@H](CC(C)C)NC(=O)[C@@H](CC(C)C)NC(=O)[C@H](CCN)NC2=O)[C@@H](C)O)NC(=O)[C@H](CCN)NC(=O)[C@H](Cc2ccc(O)cc2)NC1=O` [Ex. 62] (I: Ac-SCY[Dab]E[dDab][hSer]WSVCV-NH2 / II: [Dab]T[Dab][Dab][Dab][dL]L[Dab][Dab]T; disulfide I:2-I:11; amide I:5-II:N; lactam II:4-II:C): in data set [1], the “Hemolysis at 200 μg/mL” value is listed as less than 1%. The MIC in [2] amounted to 0.125 µg/mL (≈ 0.0515 µM); in data set [3] it was 0.125 µg/mL (≈ 0.0515 µM); in data set [4] it was 0.125 µg/mL (≈ 0.0515 µM); in [5], 0.25 µg/mL (≈ 0.103 µM); in [6], 0.125 µg/mL (≈ 0.0515 µM); in [7], 4 µg/mL (≈ 1.65 µM). Further, the MIC in [8] and in data set [9] was 0.0625 µg/mL (≈ 0.0258 µM) throughout.
